From US20250230155A1 (Vanderbilt University, priority 2021, published 2025)

Biological target: T1, human mAChR M4 (Homo sapiens, UniProt P08173)
T1 construct: expressed in transfected cells
T1 sequence (P08173 1-479): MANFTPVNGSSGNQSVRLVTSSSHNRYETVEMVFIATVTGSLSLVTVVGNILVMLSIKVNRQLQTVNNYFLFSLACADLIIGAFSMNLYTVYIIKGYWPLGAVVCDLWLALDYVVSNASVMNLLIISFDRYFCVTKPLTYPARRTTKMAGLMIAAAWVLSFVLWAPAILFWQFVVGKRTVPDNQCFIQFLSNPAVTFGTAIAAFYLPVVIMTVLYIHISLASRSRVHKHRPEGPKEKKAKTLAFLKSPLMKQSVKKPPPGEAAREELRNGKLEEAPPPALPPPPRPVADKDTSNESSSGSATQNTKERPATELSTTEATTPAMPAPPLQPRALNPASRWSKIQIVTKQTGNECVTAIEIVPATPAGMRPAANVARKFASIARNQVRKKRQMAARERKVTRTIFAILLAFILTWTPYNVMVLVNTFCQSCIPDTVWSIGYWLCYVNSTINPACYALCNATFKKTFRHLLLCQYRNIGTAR
Assay: mAChR M4 cell-based functional assay (calcium mobilization, CHO-K1 hM4-Gqi5 cells)
Conditions: for Emax at 30 µM: CHO-K1, % ACh maximum at 30 μM, human M4; for EC50: positive allosteric modulator activity, increase in the EC20 acetylcholine response, CHO-K1 hM4-Gqi5 cells, read-out: Human M4 EC50; for Emax: CHO-K1
Procedure, shortened: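 CHO-K1 cells stably expressing human M4 with chimeric Gqi5, loaded with Fluo-4 AM; compounds given as 11-point 1:3 curves and calcium flux read on FDSS at 1 Hz. Acetylcholine EC20 added at 144 s, EC80 at 230 s; agonist, PAM (EC20 potentiation) and antagonist (EC80 inhibition) EC50/Emax from four-parameter fits.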

SMILES	Emax at 30 µM [%]	EC50 [nM]	Emax [%]
Cc1cc(C(=O)NCc2ccc3c(c2)CCS3(=O)=O)cnc1N1CCc2ncccc2C1 [compound 164, 6-(7,8-dihydro-5H-1,6-naphthyridin-6-yl)-N-[(1,1-dioxo-2,3-dihydrobenzothiophen-5-yl)methyl]-5-methyl-pyridine-3-carboxamide]	54	≥ 10000	
Cc1cc(C(=O)NCc2ccno2)cnc1N1CCc2ncccc2C1 [compound 123, 6-(7,8-dihydro-5H-1,6-naphthyridin-6-yl)-N-(isoxazol-5-ylmethyl)-5-methyl-pyridine-3-carboxamide]	82	≥ 10000	
Cc1cc(C#N)c(-c2cccn2C)nc1N1CCc2ncc(C(F)(F)F)cc2C1 [Example 372, 5-methyl-2-(1-methyl-1H-pyrrol-2-yl)-6-(3-(trifluoromethyl)-7,8-dihydro-1,6-naphthyridin-6(5H)-yl)nicotinonitrile]	55	5800	
Cc1nc(C)c(C)c(N2CCc3ncc(-c4ccc(N5CCC(F)(F)C5)nc4)cc3C2)n1 [compound 228, 3-(6-(3,3-difluoropyrrolidin-1-yl)pyridin-3-yl)-6-(2,5,6-trimethylpyrimidin-4-yl)-5,6,7,8-tetrahydro-1,6-naphthyridine]	66	890	
Cc1cc(C(=O)NCc2ccccn2)cnc1N1CCc2ncccc2C1 [compound 59, 6-(7,8-dihydro-5H-1,6-naphthyridin-6-yl)-5-methyl-N-(2-pyridylmethyl)pyridine-3-carboxamide]	68	6910	
Cc1cnc2c(c1)CN(c1nc(C)nc(Cl)c1C)CC2 [compound 209, 6-(6-chloro-2,5-dimethyl-pyrimidin-4-yl)-3-methyl-7,8-dihydro-5H-1,6-naphthyridine]		170	95
Cc1cnc2c(c1)CN(c1nnc(C#N)c(C)c1C)CC2 [compound 117, 4,5-dimethyl-6-(3-methyl-7,8-dihydro-5H-1,6-naphthyridin-6-yl)pyridazine-3-carbonitrile]		3650	55
Cc1cc(C#N)cnc1N1CCc2ncc(Oc3cccc(F)c3F)cc2C1 [Example 350, 6-(3-(2,3-difluorophenoxy)-7,8-dihydro-1,6-naphthyridin-6(5H)-yl)-5-methylnicotinonitrile]	84	547	
Cc1cc(C#N)cnc1N1CCc2ncc(Nc3ccc(F)cc3)cc2C1 [Example 2]	85	457	
Cc1nn(C)cc1-c1cnc2c(c1)CN(c1nc(N3CCN(C)CC3)nc(C)c1C)CC2 [compound 275, 3-(1,3-dimethyl-1/-pyrazol-4-yl)-6-(5,6-dimethyl-2-(4-methylpiperazin-1-yl)pyrimidin-4-yl)-5,6,7,8-tetrahydro-1,6-naphthyridine]	86	981	
Cc1c(C#N)nnc(N2CCc3ncc(Nc4ccc(Cl)cc4F)cc3C2)c1C [compound 46, 6-[3-(4-chloro-2-fluoro-anilino)-7,8-dihydro-5H-1,6-naphthyridin-6-yl]-4,5-dimethyl-pyridazine-3-carbonitrile]	34	970	
Cc1cc(C#N)nnc1N1CCc2ncc(C(C)(O)C(F)(F)F)cc2C1 (stereo not drawn) [Example 424, 5-methyl-6-(3-(1,1,1-trifluoro-2-hydroxypropan-2-yl)-7,8-dihydro-1,6-naphthyridin-6(5H)-yl)pyridazine-3-carbonitrile]	86	1430	
FC(F)(F)c1cnc2c(c1)CN(c1nc(Cl)nc3c1CCCC3)CC2 [compound 264, 2-chloro-4-(3-(trifluoromethyl)-7,8-dihydro-1,6-naphthyridin-6(5H)-yl)-5,6,7,8-tetrahydroquinazoline]	66	1620	

Second part, led by results:

Emax at 30 µM [%]	EC50 [nM]	SMILES	Emax [%]
111	86	Cc1cc(C(=O)N2CCC2C)nnc1N1CCc2ncc(N3CCCn4nccc43)cc2C1 (stereo not drawn) [Example 550, (6-(3-(6,7-dihydropyrazolo[1,5-a]pyrimidin-4(5H)-yl)-7,8-dihydro-1,6-naphthyridin-6(5H)-yl)-5-methylpyridazin-3-yl)(2-methylazetidin-1-yl)methanone]	
100	196	Cc1cc(C(=O)NCc2ccncc2)cnc1N1CCc2ncc(C(F)(F)F)cc2C1 [Example 444, 5-methyl-N-(pyridin-4-ylmethyl)-6-(3-(trifluoromethyl)-7,8-dihydro-1,6-naphthyridin-6(5H)-yl)nicotinamide]	
102	32	Cc1cc(C(=O)N2CC(N(C)C)C2)nnc1N1CCc2ncc(N3CCCn4nccc43)cc2C1 [Example 518, (6-(3-(6,7-dihydropyrazolo[1,5-a]pyrimidin-4(5H)-yl)-7,8-dihydro-1,6-naphthyridin-6(5H)-yl)-5-methylpyridazin-3-yl)(3-(dimethylamino)azetidin-1-yl)methanone]	
82	81	Cc1cc(C#N)cnc1N1CCc2ncc(N3CCOC(C)(C)C3)cc2C1 [Example 370, 6-(3-(2,2-dimethylmorpholino)-7,8-dihydro-1,6-naphthyridin-6(5H)-yl)-5-methylnicotinonitrile]	
72	128	Cc1cc(C(=O)N2CC3(COC3)C2)nnc1N1CCc2ncc(-c3ccnn3C)cc2C1 [Example 565, (5-methyl-6-(3-(1-methyl-1H-pyrazol-5-yl)-7,8-dihydro-1,6-naphthyridin-6(5H)-yl)pyridazin-3-yl)(2-oxa-6-azaspiro[3.3]heptan-6-yl)methanone]	
74	102	Cc1cc(C#N)nnc1N1CCc2ncc(N3CCOC(C)(C)C3)cc2C1 [Example 398, 6-(3-(2,2-dimethylmorpholino)-7,8-dihydro-1,6-naphthyridin-6(5H)-yl)-5-methylpyridazine-3-carbonitrile]	
98	321	Cc1c(C#N)nnc(N2CCc3ncc(N4CCC(C)n5nccc54)cc3C2)c1C (stereo not drawn) [Example 364, 4,5-dimethyl-6-(3-(7-methyl-6,7-dihydropyrazolo[1,5-a]pyrimidin-4(5H)-yl)-7,8-dihydro-1,6-naphthyridin-6(5H)-yl)pyridazine-3-carbonitrile]	
91	315	COc1cc(-c2cnc3c(c2)CN(c2ncc(C#N)cc2C)CC3)ccn1 [Example 338, 6-(3-(2-methoxypyridin-4-yl)-7,8-dihydro-1,6-naphthyridin-6(5H)-yl)-5-methylnicotinonitrile]	
63	354	Cc1nc(C)c(C)c(N2CCc3ncc(-c4ccc(N5CCC5)nc4)cc3C2)n1 [compound 234, 3-(6-(azetidin-1-yl)pyridin-3-yl)-6-(2,5,6-trimethylpyrimidin-4-yl)-5,6,7,8-tetrahydro-1,6-naphthyridine]	
96	305	Cc1cc(C#N)cnc1N1Cc2cc(C(F)(F)F)cnc2CC1C (stereo not drawn) [Example 366, 5-methyl-6-(7-methyl-3-(trifluoromethyl)-7,8-dihydro-1,6-naphthyridin-6(5H)-yl)nicotinonitrile]	
101	211	Cc1ncc(-c2cnc3c(c2)CN(c2ncc(C#N)cc2C)CC3)s1 [compound 185, 5-methyl-6-[3-(2-methylthiazol-5-yl)-7,8-dihydro-5H-1,6-naphthyridin-6-yl]pyridine-3-carbonitrile]	
95	336	Cc1cc(C#N)cnc1N1CCc2ncc(Nc3cc(F)cc(F)c3F)cc2C1 [compound 116, 5-methyl-6-[3-(2,3,5-trifluoroanilino)-7,8-dihydro-5H-1,6-naphthyridin-6-yl]pyridine-3-carbonitrile]	
78	233	Cc1cnc(F)cc1-c1cnc2c(c1)CN(c1nnc(C#N)c(C)c1C)CC2 [compound 72, 6-[3-(2-fluoro-5-methyl-4-pyridyl)-7,8-dihydro-5H-1,6-naphthyridin-6-yl]-4,5-dimethyl-pyridazine-3-carbonitrile]	
82	169	Cc1cc(C(=O)N2CC3(COC3)C2)nnc1N1CCc2ncc(Nc3ccnn3C)cc2C1 [Example 561, (5-methyl-6-(3-((1-methyl-1H-pyrazol-5-yl)amino)-7,8-dihydro-1,6-naphthyridin-6(5H)-yl)pyridazin-3-yl)(2-oxa-6-azaspiro[3.3]heptan-6-yl)methanone]	
81	111	Cc1nc(C)c(C)c(N2CCc3ncc(Nc4ccnn4C)cc3C2)n1 [compound 241, N-(1-methyl-1H-pyrazol-5-yl)-6-(2,5,6-trimethylpyrimidin-4-yl)-5,6,7,8-tetrahydro-1,6-naphthyridin-3-amine]	
77	223	Cc1cc(C#N)cnc1N1CCc2ncc(Nc3ccccn3)cc2C1 [Example 6]	
94	405	Cc1c(C#N)nnc(N2CCc3ncc(C(F)F)cc3C2)c1C [Example 308, 6-(3-(difluoromethyl)-7,8-dihydro-1,6-naphthyridin-6(5H)-yl)-4,5-dimethylpyridazine-3-carbonitrile]	
